Laboratory results reported in ChEMBL document CHEMBL1201862, “PubChem BioAssay data set” (2004).
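96-well plates; 48 h exposure; 5 concentrations. Endpoints by linear interpolation between flanking doses. Not reached: highest tested concentration assigned. The concentration for 50% growth inhibition is given as GI50.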 Activity calls are given as the source filed them. Rule as the data show it: active = GI50 up to about 1.1 µM and inactive = higher.

What was measured:
Assay in all cases: NCI tumour cell line growth inhibition, 48 h
[1] = test system: M14
[2] = test system: HT-29
[3] = test system: PC-3
[4] = test system: Hs-578T
[5] = test system: MDA-MB-231
[6] = test system: NCI-H460
[7] = test system: UACC-257
[8] = test system: OVCAR-8
[9] = test system: SNB-75
[10] = test system: COLO 205
[11] = test system: RXF 393
[12] = test system: 786-0
[13] = test system: NCI/ADR-RES
[14] = test system: A498
[15] = test system: SK-MEL-2
[16] = test system: TK-10
[17] = test system: NCI-H226
[18] = test system: IGROV-1
[19] = test system: HOP-92
[20] = test system: CCRF-CEM

Compound	GI50 [1]	GI50 [2]	GI50 [3]	GI50 [4]	GI50 [5]	GI50 [6]	GI50 [7]	GI50 [8]	GI50 [9]	GI50 [10]	GI50 [11]	GI50 [12]	GI50 [13]	GI50 [14]	GI50 [15]	GI50 [16]	GI50 [17]	GI50 [18]	GI50 [19]	GI50 [20]
Cc1ccccc1NC(=S)N/N=C1\C(=O)Nc2ccccc21	> 100 µM (inactive)	> 100 µM (inactive)	> 100 µM (inactive)	> 100 µM (inactive)	> 100 µM (inactive)	> 100 µM (inactive)	> 100 µM (inactive)	> 100 µM (inactive)	> 100 µM (inactive)	> 100 µM (inactive)	> 100 µM (inactive)	> 100 µM (inactive)	> 100 µM (inactive)	86.3 µM (inactive)	> 100 µM (inactive)	> 100 µM (inactive)	> 100 µM (inactive)	> 100 µM (inactive)	> 100 µM (inactive)	> 100 µM (inactive)
CCCCCC(/C=N/Nc1ccccc1)C(O)(C(F)(F)F)C(F)(F)F (configuration not stated)	> 100 µM (inactive)	> 100 µM (inactive)	> 100 µM (inactive)	> 100 µM (inactive)	> 100 µM (inactive)	> 100 µM (inactive)	> 100 µM (inactive)	> 100 µM (inactive)	> 100 µM (inactive)	> 100 µM (inactive)	> 100 µM (inactive)	> 100 µM (inactive)	> 100 µM (inactive)	> 100 µM (inactive)	> 100 µM (inactive)		> 100 µM (inactive)	> 100 µM (inactive)	> 100 µM (inactive)	83.2 µM (inactive)
COc1ccc2c(CCNS(=O)(=O)c3ccccc3)c(C(C)=O)[nH]c2c1	> 64.4 µM (inactive)	> 46.8 µM (inactive)	> 71.9 µM (inactive)	46 µM (inactive)	> 85.5 µM (inactive)	> 100 µM (inactive)	> 32.4 µM (inactive)	> 69.3 µM (inactive)	52.8 µM (inactive)	> 73.6 µM (inactive)	> 100 µM (inactive)	49.5 µM (inactive)	63.2 µM (inactive)	> 62.7 µM (inactive)	> 100 µM (inactive)	> 100 µM (inactive)	> 100 µM (inactive)	34.4 µM (inactive)	> 100 µM (inactive)	> 65.2 µM (inactive)
N#CC1C=Cc2ccccc2N1C(=O)Oc1ccccc1 (configuration not stated)	46.7 µM (inactive)	44.3 µM (inactive)	52.1 µM (inactive)	60 µM (inactive)	68.2 µM (inactive)	41.4 µM (inactive)	76.9 µM (inactive)	48.8 µM (inactive)	93.5 µM (inactive)	58.7 µM (inactive)	66.4 µM (inactive)	56.5 µM (inactive)	55.5 µM (inactive)	33.1 µM (inactive)	23.1 µM (inactive)	44.8 µM (inactive)	42.5 µM (inactive)	68.2 µM (inactive)	58.6 µM (inactive)	19.9 µM (inactive)
COc1cc(/C=N\O)nc(-c2ccccn2)c1	0.259 µM (active)	0.569 µM (active)	2.43 µM (inactive)	47.2 µM (inactive)	1.05 µM (active)	0.227 µM (active)	2.4 µM (inactive)	0.2 µM (active)	1.28 µM (inactive)	0.188 µM (active)	0.363 µM (active)	0.179 µM (active)	0.36 µM (active)	1.3 µM (inactive)		> 30.8 µM (inactive)	0.363 µM (active)	0.202 µM (active)	1.44 µM (inactive)	0.175 µM (active)
O=[N+]([O-])c1ccc(Cl)c(/C=N/C23CC4CC(CC(C4)C2)C3)c1	> 6.22 µM (inactive)	> 10 µM (inactive)	> 10 µM (inactive)	> 10 µM (inactive)	> 10 µM (inactive)	> 10 µM (inactive)	> 10 µM (inactive)	4 µM (inactive)	> 10 µM (inactive)	> 10 µM (inactive)	> 10 µM (inactive)	> 7.66 µM (inactive)	> 9.1 µM (inactive)	> 10 µM (inactive)	> 10 µM (inactive)	> 10 µM (inactive)	> 10 µM (inactive)	> 10 µM (inactive)	> 10 µM (inactive)	3.8 µM (inactive)
O=[N+]([O-])/C=C1\COCc2cc3c(cc21)OCO3	13.4 µM (inactive)	25.1 µM (inactive)	12.3 µM (inactive)	26.9 µM (inactive)	14.4 µM (inactive)	30.9 µM (inactive)	19.7 µM (inactive)	27.8 µM (inactive)	16.5 µM (inactive)	23.1 µM (inactive)	17.9 µM (inactive)	19.3 µM (inactive)	18 µM (inactive)	18.8 µM (inactive)		22.8 µM (inactive)	34 µM (inactive)	35.6 µM (inactive)	30.7 µM (inactive)	10.6 µM (inactive)
Nc1ccc2nc3ccc(N)cc3[n+](-c3ccccc3)c2c1	30.2 µM (inactive)	21.2 µM (inactive)	29.3 µM (inactive)	40.6 µM (inactive)	63.8 µM (inactive)	32.8 µM (inactive)	9.27 µM (inactive)		42.1 µM (inactive)	4.55 µM (inactive)	> 100 µM (inactive)	95.7 µM (inactive)	14.9 µM (inactive)	> 100 µM (inactive)	34.5 µM (inactive)	> 100 µM (inactive)		37.3 µM (inactive)	67 µM (inactive)	> 100 µM (inactive)
O=C(Nn1c(-c2ccccc2)nc2ccccc2c1=O)c1ccc(O)cc1	> 100 µM (inactive)	> 100 µM (inactive)	> 100 µM (inactive)	> 100 µM (inactive)	> 100 µM (inactive)	> 100 µM (inactive)	> 100 µM (inactive)	> 100 µM (inactive)	> 100 µM (inactive)	> 100 µM (inactive)	> 100 µM (inactive)	> 100 µM (inactive)	> 100 µM (inactive)	> 100 µM (inactive)		> 100 µM (inactive)	> 100 µM (inactive)	> 100 µM (inactive)	> 100 µM (inactive)	> 100 µM (inactive)
CCOC(=O)c1c(Br)c(-c2ccc([N+](=O)[O-])cc2)c(Br)n1C	> 10 µM (inactive)	> 10 µM (inactive)	> 10 µM (inactive)	5.06 µM (inactive)	> 10 µM (inactive)	> 10 µM (inactive)	> 10 µM (inactive)	> 10 µM (inactive)	2.49 µM (inactive)	> 10 µM (inactive)		> 10 µM (inactive)	> 10 µM (inactive)	> 10 µM (inactive)	> 10 µM (inactive)	> 10 µM (inactive)	> 10 µM (inactive)	> 10 µM (inactive)	2.47 µM (inactive)	> 10 µM (inactive)
CC(CO)CCNc1ncnc2c1ncn2CCC(=O)O (configuration not stated)	> 100 µM (inactive)	> 100 µM (inactive)	> 100 µM (inactive)	> 100 µM (inactive)	> 100 µM (inactive)	> 100 µM (inactive)	> 100 µM (inactive)	> 100 µM (inactive)	> 100 µM (inactive)	> 100 µM (inactive)	> 100 µM (inactive)	> 100 µM (inactive)	> 100 µM (inactive)	> 100 µM (inactive)		> 100 µM (inactive)	> 100 µM (inactive)	> 100 µM (inactive)	> 100 µM (inactive)	> 100 µM (inactive)
CC(=O)N1CC(C)(C)c2c(C)c(O)c(C)c(C)c21	> 100 µM (inactive)	> 100 µM (inactive)	> 100 µM (inactive)	> 100 µM (inactive)	> 100 µM (inactive)	> 100 µM (inactive)	> 100 µM (inactive)	> 100 µM (inactive)	54.5 µM (inactive)	> 100 µM (inactive)	> 100 µM (inactive)	> 100 µM (inactive)	> 100 µM (inactive)	> 100 µM (inactive)		> 100 µM (inactive)	> 100 µM (inactive)	> 100 µM (inactive)	> 100 µM (inactive)	> 100 µM (inactive)
COc1ccc2c(c1)C(N)=C(c1ccccc1)C2=O	> 100 µM (inactive)	> 100 µM (inactive)	> 100 µM (inactive)	11.4 µM (inactive)	51.3 µM (inactive)	> 100 µM (inactive)	> 100 µM (inactive)	34.4 µM (inactive)	12.6 µM (inactive)	> 100 µM (inactive)		80.4 µM (inactive)	36.6 µM (inactive)	> 100 µM (inactive)	> 100 µM (inactive)	> 100 µM (inactive)	87.9 µM (inactive)	63.5 µM (inactive)	> 100 µM (inactive)	> 100 µM (inactive)
C=CCOc1ccc(C2c3c(n[nH]c3O)CC(O)(OCC)C2C(=O)OCC)cc1OC (configuration not stated)	> 100 µM (inactive)	> 100 µM (inactive)	> 100 µM (inactive)	> 100 µM (inactive)	> 100 µM (inactive)	> 100 µM (inactive)	> 100 µM (inactive)	> 100 µM (inactive)	> 100 µM (inactive)	> 100 µM (inactive)		> 100 µM (inactive)	> 100 µM (inactive)	> 100 µM (inactive)	> 100 µM (inactive)	> 100 µM (inactive)		> 100 µM (inactive)	> 100 µM (inactive)	> 100 µM (inactive)
CC(C)(C)c1ccc(CN2CCN(C(c3ccccc3)c3ccc(Cl)cc3)CC2)cc1 (configuration not stated)	33.4 µM (inactive)	20.3 µM (inactive)	57.3 µM (inactive)	> 100 µM (inactive)	> 100 µM (inactive)	95.1 µM (inactive)	35.9 µM (inactive)	> 100 µM (inactive)	> 100 µM (inactive)	38.8 µM (inactive)	24.4 µM (inactive)	42.4 µM (inactive)	> 100 µM (inactive)	> 100 µM (inactive)	31 µM (inactive)	> 100 µM (inactive)	22.1 µM (inactive)	> 100 µM (inactive)	> 100 µM (inactive)	
